In US6974822B2, “3-isoquinolinone derivatives as matrix metalloproteinase inhibitors” (Warner-Lambert Company LLC, priority 2002, dated 2005):

Target: T1, human MMP-13 catalytic domain (hMMP-13CD) (Homo sapiens, UniProt P45452)
T1 construct: a human MMP-13 catalytic domain (“hMMP-13CD”)
Experiment: Inhibition of MMP-13 catalytic domain (thiopeptolide substrate hydrolysis, IC50)
Type: biochemical
Source text: The assays measure the amount by which a test compound reduces the hydrolysis of a thiopeptolide substrate catalyzed by a matrix metalloproteinase enzyme. Such assays are described in detail by Ye et al., in Biochemistry, 1992;31(45):11231-11235, which is incorporated herein by reference. One such assay is described below in Biological Method 1.
Some of the particular methods described below use the catalytic domain of the MMP-13 enzyme, namely matrix metalloproteinase-13 catalytic domain (“MMP-13CD”), rather than the corresponding full-length enzyme, MMP-13. It has been shown previously by Ye Qi-Zhuang, Hupe D., and Johnson L. (Current Medicinal Chemistry, 1996;3:407-418) that inhibitor activity against a catalytic domain of an MMP is predictive of the inhibitor activity against the respective full-length MMP enzyme.
Thiopeptolide substrates show virtually no decomposition or hydrolysis at or below neutral pH in the absence of a matrix metalloproteinase enzyme. A typical thiopeptolide substrate commonly utilized for assays is Ac-Pro-Leu-Glythioester-Leu-Leu-Gly-OEt. […] The change in absorbance at 405 nm is monitored on a Thermo Max microplate reader (molecular Devices, Menlo Park, Calif.) at room temperature (22° C.). […]
Some representative compounds of Formula I have been evaluated for their ability to inhibit MMP-13. […]

Question: For `O=C(O)c1ccc(Cn2ccc3ccc(C#CCn4ccnn4)cc3c2=O)cc1` [4-[1-oxo-7-(3-[1,2,3]triazol-1-ylprop-1-ynyl)-1H-isoquinolin-2-ylmethyl]benzoic acid], which IC50 is on record?
Answer: > 50 µM
